Legend:
SNCA mRNA = assay: endogenous SNCA mRNA expression in SK-N-MC neuroblastoma cells (screening, replication, confirmation; qPCR); type: cell-based, human
Procedure: Human neuroblastoma SK-N-MC cells were acquired from American Type Culture Collection (ATCC). Cells were cultured at 37° C. in 5% CO2 in DMEM/F12 supplemented with 10% fetal bovine serum (FBS) and 100 units per ml penicillin and streptomycin. The drug library was obtained from the Laboratory for Drug Discovery in Neurodegeneration (LDDN), Harvard NeuroDiscovery Center, Boston, Mass. The drug library consisted of approximately 1,126 small molecules. About 586 of the compounds were from Prestwick Chemical's (Illkirch, France) library, a unique collection of mostly off-patent small organic molecules, 90% being marketed drugs and 10% bioactive alkaloids or related substances. About 400 compounds were from the SPECS collection (available on the world wide web at.specs.net). 140 compounds generated in house by the LDDN were also included in the library. Compounds for the screening were stored as DMSO stocks. All drugs used for Confirmation Assay were purchased from Sigma (St. Louis, Mo.).
Approximately 2×10^4low passage SK-N-MC cells were seeded per well in 384-well cell culture plates for 24 hours. Compounds were then transferred into each well (final concentration 1 μM) by using a BioMekFX (Beckman Coulter) equipped with a 384-channel pipetting head. After 48 hours in cell culture incubator, cells were washed once in cold phosphate-buffered saline (PBS) by using BioTek ELx405 select CW plate washer and then lysed at room temperature (22-24° C.) with lysis buffer (Applied Biosystems) using the Cell-to-CT procedures according to the manufacturer's instructions (Applied Biosystems). After 5 min, lysis was terminated by incubation with stop solution (Applied Biosystems). 11 μL of each lysate were transferred to 384-well plates for RT in a total volume of 25 μl. 4 μL of RT reaction were then transferred to new 384-well plates for qPCR.
Using the Cell-to-CT kit (Applied Biosystems) we performed expression analysis directly from SK-N-MC neuroblastoma cells cultured in 384-well plates through in situ cDNA synthesis. In this miniaturized assay, high copy numbers of SNCA and of endogenous controls were detected as indicated by raw cycle threshold values of 25.11±0.02 (mean CT value±SEM) and 20.2±0.02 for SNCA and Ubiquitin C (UBC), respectively. Technical variation (using identical cDNA loaded in multiple wells) and biological variation (cDNA synthesized in situ in each of 384 wells of cultured SK-N-MC cells treated with DMSO) were low, with coefficients of variation of 1% and 5.2% respectively. At least ten DMSO-treated controls were included on each 384-well plate as negative external control and calibrator. An equal amount of cDNA derived from Universal Reference RNA was spotted on all plates as plate-to-plate control. Control reactions lacking template or reverse transcription were assayed for contamination with genomic DNA.
41 compounds were forwarded into the Replication Assay. For each compound eight wells were treated with drug and compared to eight wells treated with DMSO alone. The Cell-to-CT procedure was employed using two new reference genes, ribosomal protein L13 (RPL13) and glucuronidase beta (GUSB) (instead of UBC) to control for input RNA. […] 10 compounds met these criteria and were forwarded from the Replication into the Confirmation Assay.
The ten forwarded compounds were used in the Confirmation Assay. For each compound ten wells were treated with drug and compared to ten wells treated with DMSO alone. RNA was extracted using TRIzol® following the manufacturers protocol (Life Technologies). Freshly ordered compounds were used. […] Six compounds met these criteria and were forwarded from the Confirmation Assay to the ELISA Assay stage (see below).
Total RNA from flash-frozen mice brain tissue, rodent primary cells, human neuroblastoma cells and iPSC-derived neuronal cells was isolated using TRIzol® (Life Technologies) following the manufacturer's protocol. […]

α-synuclein protein = α-synuclein protein in rat primary cortical neurons (ELISA); type: cell-based; conditions: metaproterenol 5 μM, clenbuterol 20 μM, salbutamol 10 μM, 72 hours
Procedure: Primary cortical cultures were generated from E18 Sprague-Dawley rat embryos. The cortical region was dissected out in Hank's Balanced Salt Solution buffered with Hepes and dissociated with 0.125% trypsin (Invitrogen) for 17 min at 37 ° C., followed by trituration. Dissociated cells were plated at a density of 5×10^5 cells/well or 2.5×10^5 cells/well in 12-well or 24-well plates, respectively precoated with poly-D lysine (100 μg/mL). The cells were cultured in Neurobasal medium with B-27 supplement (Invitrogen) and glutamax and gentamycin. Half of the medium was changed every 4 days. Cortical neurons were treated with β2AR agonists 10 days post plating. They were then harvested 48 hours post-treatment for mRNA extraction and 72 hours post-treatment for protein extraction.
Protein lysis buffer containing 320 mM sucrose, 5 mM NaF, 1 mM Na3VO4, 10 mM Tris (pH 7.4), 1 mM EGTA, and 1 mM EDTA was used for mice brain tissue lysis. 100 μL of cold extraction buffer was added to each sample and homogenized in a dounce homogenizer. […] Total protein concentrations were determined by BCA assay (Thermo Scientific) according to the manufacturer's instructions. Total α-synuclein was quantified using an α-synuclein-specific sandwich ELISA.
An α-synuclein-specific Meso Scale Discovery (MSD) ELISA assay (described in Ref. (11)) was utilized for endogenous α-synuclein protein measurement. […] After samples were emptied and plate washed 3 times with TBS-T, sulfo-tagged SOY1 mAb (detection Ab) (generated using Sulfo-Tag-NHS-Ester (MSD) diluted in blocking buffer (6.7 ng/μl), was added to the plate (30 μl volumes/well) and shaken for 1 hour at room temperature. Following 3 washes, MSD Read (2×, diluted in ultrapure water) buffer was added and the plates were immediately measured using a MSD Sector 2400 imager. For confirmatory studies, an second α-synuclein-specific ELISA implementation was used employing a different, extensively published anti-α-synuclein detection antibody (Syn-1 mAb) and a different anti-α-synuclein capture antibody (1H9, courtesy Dr. Selkoe).

CC(C)NCC(O)COc1cccc2ccccc12 (centres unmarked) [Propranolol, propranolol]
endogenous SNCA mRNA under β2AR antagonism (SNCA mRNA; SK-N-MC cells): increased | effect of co-treatment on clenbuterol's SNCA expression-lowering effects (SNCA mRNA; SK-N-MC cells, co-treatment with clenbuterol): blocked clenbuterol's SNCA expression-lowering effects

CC(C)(C)NCC(O)c1ccc(O)c(CO)c1 (centres unmarked) [Salbutamol, salbutamol]
SNCA mRNA expression, dose dependence (SNCA mRNA; SK-N-MC cells, indicated doses, 48 hours): lowered SNCA mRNA expression in a dose-dependent manner | α-synuclein protein levels (α-synuclein protein): significantly, but modestly, reduced

CC(C)(C)NCC(O)c1cc(Cl)c(N)c(Cl)c1 (centres unmarked) [clenbuterol]
SNCA mRNA levels after 14 days (SNCA mRNA; SK-N-MC cells, 10 μM, 14 days): lowered | α-synuclein mRNA levels with increasing concentrations (SNCA mRNA; SK-N-MC cells, 5, 10, 20 μM, four days): decrease in α-synuclein mRNA | relative SNCA mRNA abundance (with H3K27Ac blot) (SNCA mRNA; SK-N-MC cells, vs vehicle-treated cells): decreased | α-synuclein protein levels (α-synuclein protein): significantly, but modestly, reduced

Source: US20210308077A1, “COMBINATIONS INCLUDING BETA-ADRENORECEPTOR AGONISTS FOR TREATMENT OF PARKINSON`S DISEASE AND MOVEMENT DISORDERS” (The Brigham and Women`s Hospital, Inc., priority 2017, published 2021)
